Publication PMC11956017, “Design of Benzyl-triazolopyrimidine-Based NADPH Oxidase Inhibitors Leads to the Discovery of a Potent Dual Covalent NOX2/MAOB Inhibitor” (Journal of Medicinal Chemistry, 2025)
pIC50: −log10 of the molar value. Entries after “also recorded” stand apart in the source; their conditions may differ.

Key:
BV2 cells = assay: MTT viability assay in BV2 cells; type: cell-based, murine; conditions: 10 μM, LPS/IFN-γ stimulation, 48 h
Description: BV2 murine microglial cells were cultured in DMEM supplemented with 10% heat-inactivated FBS, 100 IU/mL penicillin G, 100 mg/mL streptomycin, and 2.5 mg/mL amphotericin B and grown at 37 °C in 5% CO2 and a humidified atmosphere. […] After 30 min, LPS 100 ng/mL and IFN-γ 20 ng/mL were added to the medium for an additional 48 h.
Cell viability was determined by the MTT assay. Briefly, MTT (dissolved in PBS with a final concentration of 0.5 mg/mL) was added to the medium culture. After 2 h of incubation, the cells were mixed with DMSO and shaken for 10 min. Finally, the absorption of the samples was read by regulating the 570 nm filter as the main wavelength and the 630 nm filter as the referenced wavelength. The blank was subtracted from all samples to obtain pure cellular absorption. Results are expressed as the percentage of cell survival, taking 100% of the cells treated with the vehicle.

human myoglobin = molecular target: T1, human myoglobin (Homo sapiens, UniProt P02144); assay: Native mass spectrometry of myoglobin reactivity; type: binding; conditions: myoglobin 1 µM, compound 5 µM and 20 µM, pH 7.5, 30 minutes
T1 construct: purchased Sigma Aldrich M6036; host or cells: human cardiac
T1 sequence (P02144 1-154): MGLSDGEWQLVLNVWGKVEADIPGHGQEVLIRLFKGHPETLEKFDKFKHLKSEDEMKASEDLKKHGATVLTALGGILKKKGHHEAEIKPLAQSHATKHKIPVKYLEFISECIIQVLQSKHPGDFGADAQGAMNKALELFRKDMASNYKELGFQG
Description: (§1) Protein samples were buffer-exchanged into 200 mM ammonium acetate (pH 7.5) through dialysis prior to native MS analyses. These samples were directly introduced into the mass spectrometer using gold-coated capillary needles prepared in-house.[63] Data were collected on a Q Exactive UHMR hybrid quadrupole-Orbitrap mass spectrometer (Thermo Fisher) with positive polarity. The instrument parameters used for MS spectra collection were the following: capillary voltage, 1.2 kV; scan range from 1000 to 20,000 m/z; HCD collision energy, 0–100 V; source fragmentation, 0 V; in-source trapping, 0 V. The ion transfer optics was set as follows: injection flatapole, 5 V; interflatapole lens, 4 V; bent flatapole, 2 V; transfer multipole, 0 V. The resolution of the instrument was 17,500 at m/z = 200 (transient time of 64 ms), the nitrogen pressure in the HCD cell was maintained at approximately 4 × 10^–10 mbar, and the source temperature was kept at 100 °C. The noise level was set at 3 rather than the default value of 4.64. Calibration of the instruments was performed using 10 mg/mL solution of cesium iodide in water. Data were analyzed using Xcalibur 3.0 (Thermo Scientific), NaViA,[64] and UniDec software packages.[65]

bovine albumin = molecular target: T2, bovine albumin (Bos taurus, UniProt P02769); assay: Native mass spectrometry of BSA reactivity; type: binding; conditions: BSA 1 µM, compound 5 µM and 20 µM, pH 7.5, 30 minutes
T2 construct: Bovine serum albumin (BSA, Sigma Aldrich, A7030); purchased Sigma Aldrich A7030; host or cells: bovine serum
Description: as §1

NOX2 [1] = molecular target: T3, NOX2 (Homo sapiens, UniProt P04839); assay: Human NOX2 isolated membranes, cytochrome c assay; type: biochemical; set-up: NOX2 was expressed as native protein in X-CGD PLB-985 cells transduced with the RD114 pseudotyped MFGS-NOX2 vector; expressed in transfected cells; host or cells: X-CGD PLB-985 cells transduced with MFGS-NOX2; isolated membranes; Cytosolic proteins made in E. coli; conditions: membrane-embedded NOX2; n = 1; read-out: IC50 NOX2 measured with the cytochrome c assay
Description: The strong activity of NOX2 enabled the use of the peroxide-independent MCLA and cytochrome c assays that probe superoxide formation. IC50 determinations were performed as described, with the same aforementioned modifications for covalent inhibition. Briefly, 20 μg of NOX2-p22^phox membranes was added to a reaction mix with a 65 mM sodium phosphate buffer (pH 7.0), 0.5 μM FAD, 130 μM LiDS, 160 nM p67^phox, p47^phox, Rac1 Q61L, and 1 μM MCLA or 200 μM bovine cytochrome c. The estimated final protein concentration based on the heme’s absorbance was 60 nM. Compounds were incubated for 1 h at 25 °C, at varying concentrations. The reaction started by adding 240 μM NADPH, and measurements were taken by using a GloMax plate reader (Promega; MCLA) or a Cary 100 UV–vis spectrophotometer (Varian; cytochrome c).

NOX2 [2] = molecular target: T3, NOX2; assay: NOX2 inhibition upon preactivation with cytosolic partners, washout, cytochrome c reduction; type: biochemical; set-up: NOX2 was expressed as native protein in X-CGD PLB-985 cells transduced with the RD114 pseudotyped MFGS-NOX2 vector; expressed in transfected cells; host or cells: X-CGD PLB-985 cells transduced with MFGS-NOX2; isolated membranes; Cytosolic proteins made in E. coli; conditions: 1 mM compound, 60 min, with or without p47phox/p67phox/Rac1, washout, fresh activators
Description: More in detail, two different mixtures were prepared simultaneously: a “nonpreactivated NOX2” mixture in the absence of cytosolic partners and a “preactivated NOX2” mixture in the presence of cytosolic partners. NOX2-containing membranes (3.9 mg/mL) were added to a sodium phosphate buffer (65 mM, pH 7.0), 50 μM FAD, and 130 μM LiDS, in the presence or absence of 160 nM p67^phox, p47^phox, and Rac1 Q61L in a final volume of 20 μL. Both mixes were incubated with DMSO (vehicle) or 1 mM of the tested compound for 60 min at 25 °C. The mixtures were then centrifuged (20,000g for 10 min) at 4 °C to gently remove the excess of the inhibitor and, if present, of the activators. The supernatants were discarded to eliminate the excess of the nonbound compound, and the pellets were resuspended in the same volume of the fresh buffer. Subsequently, the resuspended pellets were loaded into a spectrophotometric cuvette at a final concentration of 0.39 mg/mL and incubated with fresh cytosolic activators (160 nM), LiDS (130 μM), and cytochrome c (200 μM) for 10 min at 25 °C. […] The reaction was then initiated with 240 μM NADPH and monitored at 550 nm with a Cary 100 UV–vis spectrophotometer (Varian).

[3] = Mass spectrometric analysis of GSH reactivity; conditions: GSH 10 µM and compound 10 µM (1:1), ammonium acetate 200 mM, pH 7.4
Description: Reactivity between 9a and GSH was measured via mass spectrometry on a Q Exactive UHMR hybrid quadrupole-Orbitrap mass spectrometer (Thermo Fisher) with positive polarity. The instrument parameters used for MS spectra collection were the following: capillary voltage, 1.2 kV; scan range from 350 to 2000 m/z; HCD collision voltage, 0 V; source fragmentation, 0 V; in-source trapping, 0 V. The ion transfer optics was set as follows: injection flatapole, 5 V; inner-flatapole lens, 4 V; bent flatapole, 2 V; transfer multipole, 0 V. The resolution of the instrument was 200,000 at m/z = 400, the nitrogen pressure in the HCD cell was maintained at approximately 9.8 × 10^–11 mbar, and the source temperature was kept at 100 °C. Solutions for flow injection analysis were constituted by dissolving each compound in LC-MS-grade MeOH.

T2 sequence (P02769 25-607): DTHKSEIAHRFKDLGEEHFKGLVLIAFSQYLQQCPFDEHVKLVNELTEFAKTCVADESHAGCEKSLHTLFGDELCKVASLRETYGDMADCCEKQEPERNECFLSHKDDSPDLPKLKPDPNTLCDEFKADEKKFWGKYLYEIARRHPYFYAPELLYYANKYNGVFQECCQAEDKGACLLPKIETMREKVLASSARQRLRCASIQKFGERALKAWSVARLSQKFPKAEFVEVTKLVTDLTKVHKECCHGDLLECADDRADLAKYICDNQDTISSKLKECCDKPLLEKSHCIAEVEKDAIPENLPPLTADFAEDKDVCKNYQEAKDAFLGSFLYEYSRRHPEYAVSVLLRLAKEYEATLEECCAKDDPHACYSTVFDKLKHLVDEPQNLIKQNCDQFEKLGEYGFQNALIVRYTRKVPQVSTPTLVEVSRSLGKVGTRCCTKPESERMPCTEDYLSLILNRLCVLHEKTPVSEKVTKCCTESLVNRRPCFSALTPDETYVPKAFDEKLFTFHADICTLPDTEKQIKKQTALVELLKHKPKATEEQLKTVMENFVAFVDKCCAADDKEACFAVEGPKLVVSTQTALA

SMILES: C#CCN(C)Cc1ccc(Cn2nnc3c(Sc4nc5ccccc5o4)ncnc32)cc1 [Compound 9a, N-(4-((7-(Benzo[d]oxazol-2-ylthio)-3H-[1,2,3]triazolo[4,5-d]pyrimidin-3-yl)methyl)benzyl)-N-methylprop-2-yn-1-amine]
- BV2 cell viability (BV2 cells): negligible effects on cells viability
- adduct formation with myoglobin (human myoglobin): no adduct formation was detected; also recorded: did not bind
- adduct formation with bovine serum albumin (bovine albumin): no adduct; also recorded: did not bind
- pIC50 (NOX2 [1]): 6.11
- retention of inhibitor by NOX2 after washout, resting vs activated state (NOX2 [2]): retained only by the activated
- adduct formation with glutathione [3]: readily reacted with GSH; also recorded: able to form an adduct with glutathione
